“Also recorded” adds a separate entry of the source. Where two headings read alike, the source gives them in different places.
Tests used:
[1] = test system: hairless mice (UV-induced skin thickening); experiment: Eight dose UV exposure, bi-folded epidermal thickness in hairless wild type and β2-AR knockout mice; assay type: in vivo, mouse; conditions: 5 μM in 200 μL acetone topically every other day, 200 mJ/cm^2 UV, eight irradiations
Description: The Western University of Health Sciences’ Institutional Animal Care and Use Committee (WesternU IACUC) approved all animal studies prior to initiating any experiments. The animal studies were carried out under WesternU IACUC recommendations and guidelines, which follow NIH guidelines. Mice had access to water and food ad libitum and housed on a 12-hour light/dark cycle with 35% humidity. Homozygous β1-AR and β2-AR null mice (Adrb1^tm1Bkk Adrb2^tm1Bkk/J Stock Number 003810) were purchased from Jackson Laboratory (Bar Harbor, ME); the double knockout mice were characterized previously. The double knockout mice were bred with C57BL/6J from Jackson Lab to generate a heterozygous F1 generation. The F1 generation was bred together to generate the F2 generation of which 1/16th of the offspring were a β2-AR knockout mouse. SKH-1 mice purchased from Charles River (Wilmington, MA) were bred with the β2-AR knockout mice generating a second heterozygous F1 generation. The F1 generation was bred together to generate the F2 generation of which 1/16th of the offspring were a hairless β2-AR knockout mouse. The F2 generation was backcrossed with a new batch of SKH-1 from Charles River to generate mice more efficiently. The mice used in this study are 75% SKH-1 and 25% mixed background. Following experimentation, and to cull the unused mice in a colony, mice were euthanized via exposure to 32% Isoflurane followed by cervical dislocation to ensure euthanization prior to disposal.
The first two weeks were pretreatment and the second two weeks were during the UV irradiation procedure, but drugs were applied the day after UV exposure to avoid sunscreen effects. All groups involved with UV were irradiated with 200 mJ/cm^2 dose of UV every other day for a total of eight irradiations. Bi-folded epidermal thickness was measured using a digital caliper before drug treatment on non-radiation days. Three skin thickness measurements were taken along the left, middle, and right dorsal epidermal layer, and the mean thickness was recorded for each mouse.

β2-AR [2] = test system: β2-AR; design: method as in as printed in each cell (43-46, 48-54, 56-58); conditions: as described in the references; ref (43-46, 48-54, 56-58); cited from earlier work
JB6 P+ cells [3] = experiment: SRB cytotoxicity assay; assay type: cell-based, mouse; conditions: for SRB Assay Log IΔ2*PSD: NT = no toxicity at any concentration tested; for Toxicity label: Toxic = no 10-fold difference between IΔ2*PSD from soft agar and SRB assays
Description: 96-well plates were seeded with 3x10^3 JB6 P+ cells per well and allowed to attach overnight. […] Cell viability was determined using Sulforhodamine B (SRB) assay from Sigma-Aldrich according to the manufacturer’s protocol. Cellular protein content was measured using a Bio-Tek μQuant plate reader with KCJunior software.
Concentration-response curves were normalized so that the EGF positive control on each 96-well plate was set to 100% and the control wells on each plate were set to 0%. Toxicity assays (SRB and MTS) were normalized so that the control on each plate represented 100% viability. Normalization allowed for comparison of data over a range of JB6 P+ cell cultures, passages, and experimental time for the shRNA studies, as well as control for variation in the EGF response, and importantly allowed for a direct comparison to all concentration-response experiments including the toxicity assays. […] All group sizes were determined via previous studies to provide statistically meaningful data. In the soft agar assays, key results were repeated with different JB6 P+ cells to confirm the results. Similarly, the shRNA studies were conducted with three independent concentration-response curves with different JB6 P+ cell stocks. […] For two sample comparisons a t-test was utilized, and when comparing multiple samples a One-, Two-, or Three-Factor ANOVA followed by Tukey-Kramer post hoc test was utilized depending on the data. For all tests, statistical difference was donated when p < 0.05.
The IΔ2*PSD is expressed in x-axis units (log [M]) as is an IC50 and it represents the first concentration where it is expected to observe a statistical decrease in the measured signal.
Using the formula provided by GraphPad Prism or a straight line for the point-to-point graphs, the X-axis value for point Y was determined. The error is ascribed to this measurement via adding and subtracting the pooled standard deviation (PSD) to/from point Y generating point Y ± PSD. The two new points were then transformed to the X-axis units as was done for point Y creating an asymmetric error in sigmoidal plots. When the error was asymmetric, the larger error value was chosen to err on the conservative side. See S1 Fig for a pictoral explination of the method. The data is presented as IΔ2*PSD ± error.

JB6 P+ cells [4] = experiment: Anchorage-independent growth assay in soft agar (EGF-induced JB6 P+ colony formation); assay type: cell-based, mouse; conditions: for minimal effective concentration / IC50 / Emax: Mus musculus; for minimal effective concentration / IC50 / effect on EGF-mediated transformation of JB6 P+ cells, words: 10 ng/mL EGF; for minimal effective concentration: first concentration with expected statistical decrease, read-out: Soft Agar Assay Log IΔ2*PSD (converted); for Emax: efficacy of inhibition of colony formation, reported if non-toxic
Description: Ten ng/mL EGF was used to promote the anchorage-independent growth of JB6 cells. […] Plates were incubated at 37°C, 5% CO2 for 14 days. Colonies with greater than ten cells were counted manually under a microscope. […] Normalization allowed for comparison of data over a range of JB6 P+ cell cultures, passages, and experimental time for the shRNA studies, as well as control for variation in the EGF response, and importantly allowed for a direct comparison to all concentration-response experiments including the toxicity assays. […] All group sizes were determined via previous studies to provide statistically meaningful data. In the soft agar assays, key results were repeated with different JB6 P+ cells to confirm the results. Similarly, the shRNA studies were conducted with three independent concentration-response curves with different JB6 P+ cell stocks. […] For two sample comparisons a t-test was utilized, and when comparing multiple samples a One-, Two-, or Three-Factor ANOVA followed by Tukey-Kramer post hoc test was utilized depending on the data. For all tests, statistical difference was donated when p < 0.05. […] The I[…]*PSD is expressed in x-axis units (log [M]) as is an IC50 and it represents the first concentration where it is expected to observe a statistical decrease in the measured signal. […] Using the formula provided by GraphPad Prism or a straight line for the point-to-point graphs, the X-axis value for point Y was determined. The error is ascribed to this measurement via adding and subtracting the pooled standard deviation (PSD) to/from point Y generating point Y ± PSD. The two new points were then transformed to the X-axis units as was done for point Y creating an asymmetric error in sigmoidal plots. When the error was asymmetric, the larger error value was chosen to err on the conservative side. See S1 Fig for a pictoral explination of the method. The data is presented as I[…]*PSD ± error.

JB6 P+ cells [5] = conditions: cited from earlier work
β2-AR [6] = conditions: given as negative log value; cited from earlier work
α1D-AR = conditions: read-out: Kd towards the α1D-AR; cited from earlier work
[7] = 336 h, 14 days, negative log value, read-out: Soft Agar Assay Log IC50 (converted)
[8] = soft agar, read-out: IC50, inhibition of EGF-mediated transformation

Oc1cccc2[nH]c3ccccc3c12 [4-OHC, 4-Hydroxycarbazole]
effect on UV-induced skin thickening, words ([1]; wild type mice): little effect in wild type mice
effect on UV-induced skin thickening, words ([1]; β2-AR knockout mice): no effect in knockout mice

CCCC(=O)Nc1ccc(OCC(O)CNC(C)C)c(C(C)=O)c1 (stereo not shown) [Acebutolol]
Pharmacological property at β2-AR (β2-AR [2]): Partial agonist [56]
SRB Assay Log IΔ2*PSD (JB6 P+ cells [3]; 72 hr): -3.39 ± 0.70 log [M]
Toxicity label (JB6 P+ cells [3]): Toxic
minimal effective concentration (JB6 P+ cells [4]; 336 h, 14 days): 49 µM

C=CCc1ccccc1OCC(O)CNC(C)C (stereo not shown) [Alprenolol]
Pharmacological property at β2-AR (β2-AR [2]): Biased agonist/ activates ERK [43]
SRB Assay Log IΔ2*PSD (JB6 P+ cells [3]; 72 hr): -4.95 ± 0.06 log [M]
IC50 (JB6 P+ cells [4]; [7]): 0.427 µM
Emax (JB6 P+ cells [4]): 93.8 ± 2.88%

CC(C)NCC(O)COc1ccc(CC(N)=O)cc1 (stereo not shown) [Atenolol]
Pharmacological property at β2-AR (β2-AR [2]): Inverse agonist for cAMP [50]
Soft Agar Assay Log IC50 (JB6 P+ cells [5]; 10 ng/mL EGF, negative log value): -5.04 ± 0.27 [19] log [M]
effect on EGF-mediated transformation of JB6 P+ cells, words (JB6 P+ cells [5]; previous data): less potent and displayed partial efficacy
IC50 (JB6 P+ cells [5]; previously published atenolol, read-out: IC50, inhibition of EGF-mediated transformation): 9.19 µM
Emax (JB6 P+ cells [4]): 47.9 ± 7.81%

CC(C)(Cc1c[nH]c2ccccc12)NCC(O)COc1ccccc1C#N (stereo not shown) [Bucindolol]
Pharmacological property at β2-AR (β2-AR [2]): Partial agonist for cAMP and full agonist for ERK [44, 52]
Log Kd at β2-AR (β2-AR [6]): -8.22 ± 0.1 [52]
SRB Assay Log IΔ2*PSD (JB6 P+ cells [3]; 72 hr): -4.84 ± 0.10 log [M]
Toxicity label (JB6 P+ cells [3]): Toxic
IC50 (JB6 P+ cells [4]; [7]): 9.33 µM
minimal effective concentration (JB6 P+ cells [4]; 336 h, 14 days): 1.91 µM

Cc1ccc(Cl)c(OCC(O)CNC(C)(C)C)c1 (stereo not shown) [Bupranolol]
Pharmacological property at β2-AR (β2-AR [2]): Antagonist, not specified
SRB Assay Log IΔ2*PSD (JB6 P+ cells [3]; 72 hr): -4.80 ± 0.05 log [M]
Toxicity label (JB6 P+ cells [3]): Toxic

CC(C)(C)NCC(O)COc1cccc2[nH]c(=O)[nH]c12 (stereo not shown) [CGP 12177]
Pharmacological property at β2-AR (β2-AR [2]): Partial agonist [53]
SRB Assay Log IΔ2*PSD (JB6 P+ cells [3]; 72 hr): -4.46 ± 0.19 log [M]
Toxicity label (JB6 P+ cells [3]): Toxic
effect on EGF-mediated transformation of JB6 P+ cells, words (JB6 P+ cells [4]; soft agar): do not prevent EGF-induced transformation of JB6 P+ cells
minimal effective concentration (JB6 P+ cells [4]; 336 h, 14 days): 7.59 µM

CC(C)NCC(O)COc1cccc2[nH]c3ccccc3c12 (stereo not shown) [Carazolol]
SRB Assay Log IΔ2*PSD (JB6 P+ cells [3]; 72 hr): -5.00 ± 0.14 log [M]
Toxicity label (JB6 P+ cells [3]): Toxic
minimal effective concentration (JB6 P+ cells [4]; 336 h, 14 days): 7.41 µM

Cl.O=C1c2ccccc2CCC1CNCCc1ccc(O)cc1 (stereo not drawn) [HEAT HCl, 2-{[β-(4-Hydroxyphenyl)ethyl]aminomethyl}-1-tetralone hydrochloride]
toxicity in SRB assay, words (JB6 P+ cells [3]; 72 hr): toxicity at 10 μM
SRB Assay Log IΔ2*PSD (JB6 P+ cells [3]; 72 hr): -5.99 ± 0.03 log [M]
effect on EGF-mediated transformation of JB6 P+ cells, words (JB6 P+ cells [4]; soft agar): only inhibited colony formation at 1 and 10 μM; also recorded: do not prevent EGF-induced transformation of JB6 P+ cells
minimal effective concentration (JB6 P+ cells [4]; 336 h, 14 days): 0.145 µM
Kd (α1D-AR): 0.000361 ± 8e-05 µM

Cc1ccc(OCC(O)C(C)NC(C)C)c2c1CCC2 (stereo not shown) [ICI 118,551]
Pharmacological property at β2-AR (β2-AR [2]): Inverse agonist for cAMP that recruits ±-arr [29, 49]
SRB Assay Log IΔ2*PSD (JB6 P+ cells [3]; 72 hr): -3.59 ± 0.50 log [M]
Toxicity label (JB6 P+ cells [3]): Toxic
IC50 (JB6 P+ cells [4]; [7]): 4.47 µM
minimal effective concentration (JB6 P+ cells [4]; 336 h, 14 days): 3.39 µM

CC(C)NCC(O)c1ccc(O)c(O)c1 (stereo not shown) [Isoproterenol]
Pharmacological property at β2-AR (β2-AR [2]): Full equipotent agonist [44, 58]
SRB Assay Log IΔ2*PSD (JB6 P+ cells [3]; 72 hr): -4.77 ± 0.16 log [M]
Toxicity label (JB6 P+ cells [3]): Toxic
effect on EGF-mediated transformation of JB6 P+ cells, words (JB6 P+ cells [4]; soft agar): failed to increase EGF-mediated transformation of JB6 P+ cells
minimal effective concentration (JB6 P+ cells [4]; 336 h, 14 days): 24.5 µM

CC(CCc1ccccc1)NCC(O)c1ccc(O)c(C(N)=O)c1 (stereo not shown) [Labetalol]
Pharmacological property at β2-AR (β2-AR [2]): Partial agonist for cAMP and full agonist for ERK [44, 45]
IC50 (JB6 P+ cells [4]; [7]): 0.501 µM
Emax (JB6 P+ cells [4]): 90.3 ± 8.48%

COCCc1ccc(OCC(O)CNC(C)C)cc1 (stereo not shown) [Metoprolol]
Pharmacological property at β2-AR (β2-AR [2]): Inverse agonist for cAMP [51]
SRB Assay Log IΔ2*PSD (JB6 P+ cells [3]; 72 hr): -4.52 ± 0.20 log [M]
Toxicity label (JB6 P+ cells [3]): Toxic
minimal effective concentration (JB6 P+ cells [4]; 336 h, 14 days): 24.5 µM

CC(C)(C)NCC(O)COc1cccc2c1CC(O)C(O)C2 (stereo not shown) [Nadolol]
Pharmacological property at β2-AR (β2-AR [2]): Inverse agonist for cAMP [44, 57]
effect on EGF-mediated transformation of JB6 P+ cells, words (JB6 P+ cells [4]; soft agar): do not prevent EGF-induced transformation of JB6 P+ cells
minimal effective concentration (JB6 P+ cells [4]; 336 h, 14 days): 4.68 µM

CC(C)NCC(O)c1ccc2ccccc2c1 (stereo not shown) [Pronethalol]
Pharmacological property at β2-AR (β2-AR [2]): Inverse agonist for cAMP [48]
SRB Assay Log IΔ2*PSD (JB6 P+ cells [3]; 72 hr): -4.86 ± 0.23 log [M]
IC50 (JB6 P+ cells [4]; [8]): 2.53 µM
IC50 (JB6 P+ cells [4]; [7]): 2.51 µM
Emax (JB6 P+ cells [4]): 100%

CC(C)NCC(O)COc1cccc2ccccc12 (stereo not shown) [Propranolol]
Pharmacological property at β2-AR (β2-AR [2]): Inverse agonist for cAMP that recruits ±-arr [29, 51]
SRB Assay Log IΔ2*PSD (JB6 P+ cells [3]; 72 hr): -4.20 ± 0.11 log [M]
minimal effective concentration (JB6 P+ cells [4]; 336 h, 14 days): 5.5 µM

CC(C)(C)NC[C@H](O)COc1nsnc1N1CCOCC1 [Timolol]
Pharmacological property at β2-AR (β2-AR [2]): Inverse agonist for cAMP [48]
SRB Assay Log IΔ2*PSD (JB6 P+ cells [3]; 72 hr): -4.22 ± 0.34 log [M]
IC50 (JB6 P+ cells [4]; [8]): 3.31 µM
IC50 (JB6 P+ cells [4]; [7]): 3.31 µM
Emax (JB6 P+ cells [4]): 100%

Reference: publication PMC6527222 (PLoS ONE, 2019)
